{
  "source": "patent US9486471B2",
  "about": "“Combination therapy for the treatment of cancer” (McMaster University, priority 2012, dated 2016)",
  "key": {"[1]": {"system": "HL-60, MV4-11 and OCI-AML3 leukemic cell lines", "experiment": "Normalized cell number of leukemic cell lines after 72 h incubation (Examples 1, 3)", "assay_type": "cell-based, human", "description": "All three lines are leukemic cell lines. […] Each condition had three replicates.\nThe dopamine receptor antagonist and phenothiazine-related compound chlorpromazine was also investigated for effects on the AML cell lines HL-60, MV4-11 and OCI-AML3. Testing was performed as set out in Example 1."}, "[2]": {"system": "AML cell lines HL-60, OCI-AML2 and OCI-AML3", "description": "All three lines are leukemic cell lines. HL-60 was derived from promyelocytic AML whereas MV 4-11 and OCI-AML3 are representative of AML. Each compound was incubated with the cells for 72 h. The control was DMSO (ie the vehicle used for the compound) for 72 h. Each condition had three replicates.\nA series of dopamine receptor agonists, D3-antagonists, DR1 & 5-antagonists and multi-receptor antagonists were tested for cytotoxicity against three AML cell lines HL-60, OCI-AML2 and OCI-AML3. Testing was performed as set out in Example 1."}, "[3]": {"system": "normal HSCs and progenitors", "experiment": "Methocellulose colony formation of normal HSCs (Example 2)", "assay_type": "cell-based, human", "details": "10 μM", "description": "(§1) Normal HSCs and progenitors were sourced from either mobilized peripheral blood or umbilical cord blood of health patients. Primary AML cells were taken from patients diagnosed with AML. Both normal HSCs and primary AML cells were cultured under standard in vitro methocellulose assay conditions (see http://www.stemcell.com/en/Products/All-Products/MethoCult-H4434-Classic.aspx as well as Clinton Campbell et al. The human stem cell hierarchy is defined by a functional dependence on Mcl-1 for self-renewal capacity. Blood 116 (9) 1433-1442 (Jun. 4, 2010), hereby incorporated by reference) for at least 14 days before the number of colonies were recorded."}, "primary AML cells": {"system": "primary AML cells", "experiment": "Methocellulose blast colony formation of primary AML cells (Example 2)", "assay_type": "cell-based, human", "details": "10 μM; control about 22; at least 14 days", "description": "as §1"}, "[4]": {"system": "CD14+ cells in primary AML", "experiment": "Flow cytometry frequency of CD14+ cells in primary AML", "assay_type": "cell-based, human", "details": "10 μM, 72 h; control 100%"}, "[5]": {"system": "p53 and p21 in neoplastic hPSCs", "experiment": "p53 and p21 accumulation in neoplastic hPSCs", "assay_type": "cell-based, human", "details": "24 h; 10 μM etoposide, 10 μM thioridazine, BMP4", "excerpt": "Antibodies. Antibodies used for immunocytochemistry were the following: Oct3/4 (BD Trunsduction Laboratories, cat#611203), Sox2 (R&D, cat#AF2018). To detect human hematopoietic cells, Pacific Blue-, PE-, APC- or FITC labeled anti-human CD45 was used (BD Biosciences). FITC anti-CD33, PE anti-CD13, FITC anti-CD41a, FITC anti-HLA DR, and PE anti-CD19 antibodies were obtained from BD Pharmingen. PE anti-CD14, PE anti-CD15 and PE anti-GlyA were acquired from Immunotech Beckman Coulter. To determine pluripotency, PE anti-SSEA3 (BD Biosciences) and PE- or AlexaFluor488 anti-Oct4 (BD Biosciences). Rabbit anti-human dopamine receptor antibodies; DRD1 (Cat#324390), DRD2 (Cat#324393), DRD3 (Cat#324402), DRD4 (Cat#324405) and DRD5 (Cat#324408) were sourced from EMD Chemical. Anti-rabbit Alexa-Fluor-488 (Molecular Probes) was used as the secondary antibody. Primary anti-p53 (Cat#2527) and anti-p21 (Cat#2947) rabbit IgG sourced from Cell Signaling Technology were used to stain fixed and permeabilized cells. Anti-rabbit alexa-Fluor-546 (Molecular Probes) was used as the secondary antibody."}, "[6]": {"system": "differentiation-associated genes in neoplastic hPSCs", "experiment": "TaqMan Low-Density Array-qPCR of differentiation genes", "assay_type": "cell-based, human", "details": "treated neoplastic hPSCs; >2 fold increase", "method": "Gene Expression Analysis. Cells in specific conditions were collected and RNA was extracted by using RNeasy kit (Qiagen), complementary DNA (cDNA) generation by using SuperScript III® cDNA synthesis kit (Invitrogen), pre-amplification and TaqMan® array reaction (Applied Biosystems) were performed according to manufacturer's instructions. The gene expression profile for each treated cell population was analyzed using TaqMan® Stem Cell Pluripotency Array Card on ViiA 7 Real-Time PCR System (Applied Biosystems). Each reaction sample was dispensed into loading wells on the array card and centrifuged twice at 336×g for 1 min each time, sealed, and placed in the thermal cycler. The following cycling conditions were used for all array card applications: 45° C. for 10 min, 94° C. for 10 min, and 40 cycles of 94° C. for 30 s followed by 60° C. for 1 min. Array data were normalized to 18S RNA and GAPDH and comparisons were performed using data analysis 2.0 software (Applied Biosystems)."}, "[7]": {"system": "hematopoietic stem and progenitor cells (HSPC, CB lin-)", "experiment": "Methylcellulose colony-forming assay, HSPC (CB lin-)", "details": "24 h treatment, colonies scored after 14 days", "description": "(§2) AML/HPSC Cell Culture. AML cell lines, namely, OCI-AML2 (M4), OCI-AML3 (M4), HL-60 (M2) and MV-4-11(M5) were cultured in RPMI (Gibco) supplemented with 5% heated-inactivated FBS (HyClone). For DR agonist studies with R(+)-7-Hydroxy-DPAT hydrobromide (Sigma), serum-free conditions were employed instead due to the prevalence of dopamine in FBS (Little et al., 2002). AML patient blasts were cultured in IMDM supplemented with 5% heated inactivated FBS (HyClone), 5 ng/mL IL3 (R&D systems), 5×10^−5 M β-mercaptoethanol (Sigma) and BIT (StemCell Technologies). HSC media contained IMDM supplemented with 1% BSA (Sigma), 100 ng/mL SCF (R&D systems), 100 ng/mL Flt-3L (R&D systems) and 20 ng/mL TPO (R&D systems). Patient HSPC and AML samples were treated with compound or DMSO-vehicle (0.1%) for 24 h prior to CFU plating or xenotransplantation studies.\n(§3) Methylcellulose Colony-Forming Assay. AML patient or CB lin− cells were cultured 24 hours in the presence of compound or DMSO-vehicle (0.1%) control. AML cells were plated at 50 000 cells/mL in Methocult GF H4434 (Stem Cell Technologies). CB lin− cells were plated at 1000 cells/mL in Methocult GF H4434 (Stem Cell Technologies). Colonies were scored after 14 days of culture using standard morphological criteria."}, "AML patient blast cells": {"system": "AML patient blast cells", "experiment": "Methylcellulose colony-forming assay, AML patient blast-CFU", "assay_type": "cell-based, human", "description": "as §2, §3"}, "[8]": {"system": "patient AML cells (CD11b)", "experiment": "Frequency of CD11b granulocytic cells in cultured patient AML cells", "assay_type": "cell-based, human", "details": "10 μM, up to 96 hours"}, "[9]": {"system": "AML-OCI2 and AML-OCI3 cell lines", "experiment": "Volumetric cell counting of AML cell lines treated with DR antagonists and agonists", "assay_type": "cell-based, human", "details": "72 h, serum-free conditions", "method": "Volumetric Cell Counting. The number of AML-OCI2 and AML-OCI3 cells present after 72 h treatment with DR antagonists (FIG. 16b) and agonist (FIG. 16c-d) were counted by measuring the number of events within a fixed volume following the grating strategy defined by forward scatter and side scatter clustering, 7AAD− and Hoechst+.\nDue to the bioavailability of dopamine in fetal bovine serum (FBS) (Little et al., 2002), serum-free conditions were employed to assess the role of DRs in AML."}},
  "data": [
    {"compound": "CSc1ccc2c(c1)N(CCC1CCCCN1C)c1ccccc1S2", "note": "(racemic) [thioridazine, 10-{2-[(RS)-1-Methylpiperidin-2-yl]ethyl}-2-methylsulfanylphenothiazine]", "values": [
      {"measurement": "normalized cell number", "setting": "[1]; 0.1 μM", "result": "little effect"},
      {"measurement": "normalized cell number", "setting": "[1]; 1 μM", "result": "little effect"},
      {"measurement": "normalized cell number / toxicity", "setting": "[1]; 10 μM", "result": "reduced to almost zero"},
      {"measurement": "cytotoxicity of AML cell lines", "setting": "[2]", "result": "significant effect"},
      {"measurement": "cell count", "setting": "[2]; 72 h, relative to control", "result": "eradicate the AML cell lines"},
      {"measurement": "cell pellets of CFU colonies", "setting": "[3]; HSCs", "result": "pelleted cells are still visible"},
      {"measurement": "colony forming potential of normal HSCs", "setting": "[3]; DMSO control about 100, at least 14 days", "result": "about 66 total colonies"},
      {"measurement": "number of CFU colonies of AML cells", "setting": "primary AML cells", "result": 1.6, "unit": "blast colonies"},
      {"measurement": "normalized frequency of CD14+ cells", "setting": "[4]", "result": 20, "unit": "%"},
      {"measurement": "accumulation of cell stress marker p53", "setting": "[5]", "result": "no accumulation"},
      {"measurement": "accumulation of p21", "setting": "[5]", "result": "no accumulation"},
      {"measurement": "upregulated differentiation-associated genes", "setting": "[6]", "result": "21 of 50"},
      {"measurement": "HSPC multilineage differentiation", "setting": "[7]", "result": "retaining"},
      {"measurement": "blast-CFU generation, DR+ subfraction of patient AML", "setting": "AML patient blast cells; 10 μM, 24 h", "result": "reduction"},
      {"measurement": "blast-CFU generation, DR- subfraction of patient AML", "setting": "AML patient blast cells; 10 μM, 24 h", "result": "no reduction"},
      {"measurement": "AML proliferation/clonogenic capacity", "setting": "AML patient blast cells; 24 h treatment, colonies scored after 14 days", "result": "reduction"},
      {"measurement": "AML-blast CFU formation", "setting": "AML patient blast cells; dose not stated in the sentence (0.1, 1, 10 μM tested)", "result": "reduced"},
      {"measurement": "frequency of granulocytic (CD11b) AML-blast cells", "setting": "[8]", "result": "marked increase"},
      {"measurement": "number of AML cells", "setting": "[9]", "result": "reduced the number of AML cells"}
    ]}
  ]
}
